According to US6344505B1, “Mono- and bis-benzotriazolyldihydroxybiaryl UV absorbers” (Cytec Industries Inc., priority 1999, dated 2002):
“And” between values parts separate entries of the source, which are not always exact repeats. Equal values may be shown once. Read-outs that look alike come from different tables or passages of the source.

Tests used:
[1] = Florida weathering (5° south, direct, ASTM G7-89) of acrylic melamine coating; settings: Table 11
Procedure: COMPOUND 1 was formulated in a clear acrylic melamine coatings which were applied to aluminum panels for accelerated weathering testing as follows. COMPOUND 1 (2% based on total resin solids) was pre-dissolved in xylenes, alone and in combination with Sanduvor® 3058 HALS (0.5% or 1.0% based on total resin solids), and added to the clear acrylic melamine formulation given in Table 6. A formulation containing Tinuvin® 328 (2% based on total resin solids) was also prepared for comparison purposes. Unpolished aluminum panels, measuring 4″×12″, obtained from ACT Laboratories, Inc. (Hillsdale, Mich.) were coated with the clear coat formulation of Table 6. The draw-down technique, using WC-52 Wire-Cators™ (Leneta co., Ho-Ho-Kus, N.J.), was used to apply the clear coats to the panels. Coatings 2 mil thick were obtained. The clear coats were allowed to flash for 10 min. at ambient temperature and cured for 30 min. at 135° C.
The coatings of Example 13 were weathered in Miami, Fla. The testing was performed in accordance with ASTM G7-89 at a tilt angle of […] from the horizontal facing south with specimens mounted unbacked.

[2] = Thermal Gravimetric Analysis (TGA), temperature of 10 wt % loss (volatility); assay type: physicochemical; settings: for TGA T-10%: Temperature at which 10% wt. loss is observed during TGA analysis; for TGAT=10% point: temperature at which 10 wt % loss occurs, TGA experiment
Source text: A reliable indication of the volatility of benzotriazole stabilizers is the temperatures at which 10 wt % loss occurs (TGAT=10%).

[3] = Solubility in xylene (compatibility); assay type: physicochemical
[4] = UV absorption in toluene (λmax, molar absorptivity); assay type: physicochemical
Source text: The high molar absorptivity of 3,3′-bis-(2H-benzotriazol-2-yl)-5,5′-di-tert-octyl-1,1′-biphenyl-2,2′-diol, ε310=25,600 (toluene) and ε353=28,300 (toluene) are indicative of high ultraviolet absorption efficiency of the benzotriazole stabilizers of the present invention.
The bis-benzotriazoles of the invention absorb UV light at longer wavelengths than their non-dimeric or alkylene bridged dimeric counterparts. For example, the dimeric 3,3′-bis-(2H-benzotriazol-2-yl)-5,5′-di-tert-octyl-1,1′-biphenyl-2,2′-diol of the present invention absorbs at λmax(toluene)=353 nm. In contrast, the monomeric 2-(2H-benzotriazol-2-yl)-4-tert-octyl-phenol absorbs at a much lower wavelength, at λmax(toluene)=346 nm. Furthermore, the methylene bridged 2,2′-methylenedi{6-(2-benzotriazolyl)-4-tert-octyl-phenol} has an absorption at λmax(toluene)=350 nm, also substantially shorter than that of the bis-benzotriazoles of the present invention.
PRODUCT A: 3,3′-bis-(2H-benzotriazol-2-yl)-5,5′-di-tert-octyl-1,1′-biphenyl-2,2′-diol (COMPOUND 1) (0.033 g), characterized by ^1H nuclear magnetic resonance spectroscopy (NMR), ultraviolet and mass spectroscopy; λmax(toluene): 310 and 353 nm; ε310=25,600; ε353=28,300; high resolution electron impact mass spectroscopy (HREI/MS): m/e=Found: 644.3815; Calculated: 644.3839; and
PRODUCT B: 3-(2H-Benzotriazol-2-yl)-5,5′-di-tert-octyl-1,1′-biphenyl-2,2′-diol (0.144 g), characterized by ^1H nuclear magnetic resonance spectroscopy (NMR), ultraviolet spectroscopy, and mass spectroscopy; λmax(toluene): 332 nm; ε332=15,400; high resolution electron impact mass spectroscopy (HREI/MS): m/e=Found: 527.3498; Calculated: 527.3512.

Question: For `CC(C)(C)CC(C)(C)c1cc(-c2cc(C(C)(C)CC(C)(C)C)cc(-n3nc4ccccc4n3)c2O)c(O)c(-n2nc3ccccc3n2)c1` [COMPOUND 1, 3,3′-bis-(2H-benzotriazol-2-yl)-5,5′-di-tert-octyl-1,1′-biphenyl-2,2′-diol], which “efficiency in reducing total color change (delta E) relative to the unstabilized coating” value [1] is on record?
Answer: comparable efficiency

Question: And the “TGA T-10%” value [2]?
Answer: 381 °C

Question: And the “TGAT=10% point” value [2]?
Answer: 384 °C

Question: What about the solubility in xylene [3] of the same molecule?
Answer: 6.0 gram/100 ml

Question: What about the melting point of the same molecule?
Answer: 209 to 211 °C

Question: What about the “λmax(toluene)” value [4] of the same molecule?
Answer: 310 nm and 353 nm

Question: And the “molar absorptivity ε310” value ([4]; 310 nm, in M-1 cm-1 (unit assumed))?
Answer: 25,600

Question: What about the “molar absorptivity ε353” value ([4]; 353 nm, in M-1 cm-1 (unit assumed)) of the same molecule?
Answer: 28,300

Question: And the “λmax(toluene)” value ([4]; listed as 3,3′-bis-(2H-benzotriazol-2-yl)-5,5′-di-tert-octyl-1,1′-biphenyl-2,2′-diol)?
Answer: 353 nm

Question: With `CC(C)(C)c1cc(-c2cc(C(C)(C)C)cc(-n3nc4ccccc4n3)c2O)c(O)c(-n2nc3ccccc3n2)c1` [COMPOUND 2, 3,3′-bis-(2H-benzotriazol-2-yl)-5,5′-di-tert-butyl-1,1′-biphenyl-2,2′-diol] as the molecule, how does the melting point read?
Answer: 234 °C

Question: For `CC(C)(c1ccccc1)c1cc(-c2cc(C(C)(C)c3ccccc3)cc(-n3nc4ccccc4n3)c2O)c(O)c(-n2nc3ccccc3n2)c1` [COMPOUND 3, 3,3′-bis-(2H-benzotriazol-2-yl)-5,5′-di-cumyl-1,1′-biphenyl-2,2′-diol], which “TGA T-10%” value [2] is on record?
Answer: 377 °C

Question: With `Oc1c(-c2cccc(-n3nc4ccccc4n3)c2O)cccc1-n1nc2ccccc2n1` [COMPOUND 5, 3,3′-bis-(2H-benzotriazol-2-yl)-1,1′-biphenyl-2,2′-diol] as the molecule, how does the “TGA T-10%” value [2] read?
Answer: 383 °C

Question: For `CC(C)(C)CC(C)(C)c1cc(Cc2cc(C(C)(C)CC(C)(C)C)cc(-n3nc4ccccc4n3)c2O)c(O)c(-n2nc3ccccc3n2)c1` [LA-31 ®, 2,2′-Methylenedi [Bis-2-benzotriazolyl)-4-tert-octylphenol], which “TGA T-10%” value [2] is on record?
Answer: 380 °C

Question: For `CC(C)(C)CC(C)(C)c1cc(Cc2cc(C(C)(C)CC(C)(C)C)cc(-n3nc4ccccc4n3)c2O)c(O)c(-n2nc3ccccc3n2)c1` [MIXXIM BB/100®, 2,2′-methylenedi{6-(2-benzotriazolyl)-4-tert-octyl-phenol}, reference compound], which “TGAT=10% point” value [2] is on record?
Answer: 370 °C

Question: What about the solubility in xylene [3] of the same molecule?
Answer: 2.5 gram/100 ml

Question: What about the “λmax(toluene)” value [4] of the same molecule?
Answer: 350 nm

Question: What does the source list for `CC(C)(C)CC(C)(C)c1ccc(O)c(-c2cc(C(C)(C)CC(C)(C)C)cc(-n3nc4ccccc4n3)c2O)c1` [PRODUCT B, 3-(2H-Benzotriazol-2-yl)-5,5′-di-tert-octyl-1,1′-biphenyl-2,2′-diol]?
Answer: λmax(toluene) [4]: 332 nm; molar absorptivity ε332 ([4]; 332 nm): 15,400

Question: Which “TGA T-10%” value [2] does the source give for `Cc1ccc(O)c(-n2nc3ccccc3n2)c1` [Tinuvin P ™, 2-(2H-benzotriazol-2-yl)-4-methyl-phenol] here?
Answer: 205 °C

Question: For `CCC(C)(C)c1cc(-n2nc3ccccc3n2)c(O)c(C(C)(C)CC)c1` [Tinuvin ® 328, reference compound], which “efficiency in reducing total color change (delta E) relative to the unstabilized coating” value [1] is on record?
Answer: comparable efficiency

Question: Which “TGA T-10%” value [2] does the source give for `CC(C)(c1ccccc1)c1cc(-n2nc3ccccc3n2)c(O)c(C(C)(C)c2ccccc2)c1` [Tinuvin ®-234, 2-(2H-Benzotriazol-2yl)-4,6-bis (α,α-dimethylbenzyl) phenol] here?
Answer: 312 °C

Question: Which “TGA T-10%” value [2] does the source give for `CC(C)(C)CC(C)(C)c1ccc(O)c(-n2nc3ccccc3n2)c1` [UV-5411, 2-(2H-benzotriazol-2-yl)-4-tert-octyl-phenol] here?
Answer: 245 °C

Question: What about the “TGAT=10% point” value [2] of the same molecule?
Answer: 247 °C

Question: What about the “λmax(toluene)” value [4] of the same molecule?
Answer: 346 nm
